From publication PMC10873978, “Novel tetrahydroisoquinolines as DHFR and CDK2 inhibitors: synthesis, characterization, anticancer activity and antioxidant properties” (BMC Chemistry, 2024)
“Also recorded” adds a separate entry of the source.

How the values were obtained:
[1] = DPPH scavenging antioxidant activity
Protocol: The antioxidant activity of ten compounds was determined using DPPH [32–34]. A solution 1: prepared by dissolving DPPH (0.002 g) in ethanol (50 mL etnanol). Solution 2: prepared by dissolving different weights 0.05, 0.01 g of each sample in 1 mL of DMSO then take 10 µL of each sample solution with 1 mL ethanol. Then mix 1 mL of solution 1 with 1 mL of solution 2 then vortex the resulting mixture in the dark for about 30 min. The absorbance of the mixture was measured by spectrophotometer at λmax = 517 nm against blank 1 mL absolute ethanol and compared to the ascorbic acid (Vitamin C).
Ten newly synthesized compounds were studied as in vitro antioxidants by measuring of their DPPH scavenging activity which is represented as a percentage % [32]^. Results are represented by mean ± SD of three replicates. […] The higher dose concentration of 0.05 μg/mL represents higher antioxidant activity. […] The high antioxidant activity is referred to the presence of C=O, NH2, and OH groups like ascorbic acid which can be easily oxidized and reduced and can be used as antioxidant drugs. (Fig. 8 and Table 9).

A549 cell line = test: In vitro cytotoxic activity, MTT method, A549; settings: for IC50: Homo sapiens, read-out: IC50 ± SD
Protocol: (§1) Cell lines: The in vitro human breast cancerous cell line (MCF7), lung cancerous cell lines (A549) and normal cell lines were purchased from Serum and Vaccine formulation in Cairo-Egypt.
(§2) In vitro cytotoxic activity of all synthesized compounds against two human breast cell line (MCF7) and lung cell lines (A549) was evaluated according to the MTT method. Firstly, Growth the cell line medium in 96 well tissue culture plate was injected with 10^5 cells/mL (100 uL/plate well) of the cell line and incubated at 37 °C for 24 h to develop a monolayer sheet then the formed growth medium was poured from 96 well microtiter plates after the confluent sheet of cells. […] Secondly, add 0.1 mL of each concentration tetrahydroisoquinoline sample to each plate. The plates were incubated at 37 °C. Thirdly MTT solution (5 mg/mL in PBS) is prepared. Add 20 µL of MTT solution to each well plates. And shaking in 150 rpm for 5 min, to mix the MTT into the media. Then incubate at (37 °C, 5% CO2) for 1–5 h. Finally read the optical density at 560 nm and subtract background at 620 nm.
(§3) In this work, doxorubicin was used as a positive control drug for comparison with the synthesized compounds under the same experimental conditions.

MCF7 cell line = test: In vitro cytotoxic activity, MTT method, MCF7; assay type: cell-based, human; settings: for IC50: Homo sapiens, MCF7, MCF7 cell line, MTT
Protocol: as §1, §2, §3

CC(=O)C1C(c2ccc(N(C)C)cc2)c2c(C)nc(SCC(=O)Nc3ccc(C)cc3)c(C#N)c2CC1(C)O (stereo not drawn) [Compound 7b, 2-[(7-Acetyl-4-cyano-1,6-dimethyl-6-hydroxy-8-(4-N,N-dimethylamino-phenyl)-5,6,7,8-tetrahydroisoquinolin-3-yl)thio]-N-(4-tolyl)acetamide]
DPPH scavenging, inhibition (%) ([1]; 0.01 µg/mL): 48.59 ± 0.73%
DPPH scavenging, inhibition (%) ([1]; 0.05 µg/mL): 52.19 ± 0.58%
Toxicity % (A549 cell line; A549, Conc. 0.04875 µMol): 0.2467%
Viability % (A549 cell line; A549, Conc. 0.04875 µMol): 99.7534%
Toxicity % (A549 cell line; A549, Conc. 0.0975 µMol): 0.3467%
Viability % (A549 cell line; A549, Conc. 0.0975 µMol): 99.6534%
Toxicity % (A549 cell line; A549, Conc. 0.195 µMol): 0.5128%
Viability % (A549 cell line; A549, Conc. 0.195 µMol): 99.49%
Toxicity % (A549 cell line; A549, Conc. 0.391 µMol): 14.2%
Viability % (A549 cell line; A549, Conc. 0.391 µMol): 85.8%
Toxicity % (A549 cell line; A549, Conc. 0.781 µMol): 35.82%
Viability % (A549 cell line; A549, Conc. 0.781 µMol): 64.18%
Toxicity % (A549 cell line; A549, Conc. 1.562 µMol): 53.81%
Viability % (A549 cell line; A549, Conc. 1.562 µMol): 46.19%
Toxicity % (A549 cell line; A549, Conc. 3.125 µMol): 72.39%
Viability % (A549 cell line; A549, Conc. 3.125 µMol): 27.61%
Toxicity % (A549 cell line; A549, Conc. 6.25 µMol): 86.39%
Viability % (A549 cell line; A549, Conc. 6.25 µMol): 13.61%
Toxicity % (A549 cell line; A549, Conc. 12.5 µMol): 93.85%
Viability % (A549 cell line; A549, Conc. 12.5 µMol): 6.154%
Toxicity % (A549 cell line; A549, Conc. 25 µMol): 96.41%
Viability % (A549 cell line; A549, Conc. 25 µMol): 3.59%
IC50 (A549 cell line): 987 ± 2 nM
IC50 (MCF7 cell line): 474 ± 6 nM
Toxicity % (MCF7 cell line; MCF7, 0.0487 µMol): 4.569%
Viability % (MCF7 cell line; MCF7, 0.0487 µMol): 95.4311%
Toxicity % (MCF7 cell line; MCF7, 0.0975 µMol): 6.234%
Viability % (MCF7 cell line; MCF7, 0.0975 µMol): 93.77%
Toxicity % (MCF7 cell line; MCF7, 0.195 µMol): 8.333%
Viability % (MCF7 cell line; MCF7, 0.195 µMol): 91.67%
Toxicity % (MCF7 cell line; MCF7, 0.391 µMol): 39.62%
Viability % (MCF7 cell line; MCF7, 0.391 µMol): 60.38%
Toxicity % (MCF7 cell line; MCF7, 0.781 µMol): 74.92%
Viability % (MCF7 cell line; MCF7, 0.781 µMol): 25.08%
Toxicity % (MCF7 cell line; MCF7, 1.562 µMol): 82.39%
Viability % (MCF7 cell line; MCF7, 1.562 µMol): 17.61%
Toxicity % (MCF7 cell line; MCF7, 3.125 µMol): 86.44%
Viability % (MCF7 cell line; MCF7, 3.125 µMol): 13.56%
Toxicity % (MCF7 cell line; MCF7, 6.25 µMol): 93.1%
Viability % (MCF7 cell line; MCF7, 6.25 µMol): 6.904%
Toxicity % (MCF7 cell line; MCF7, 12.5 µMol): 96.61%
Viability % (MCF7 cell line; MCF7, 12.5 µMol): 3.391%
Toxicity % (MCF7 cell line; MCF7, 25 µMol): 96.57%
Viability % (MCF7 cell line; MCF7, 25 µMol): 3.431%

CC(=O)C1C(c2ccc(N(C)C)cc2)c2c(C)nc(SCC(=O)Nc3ccc(Cl)cc3)c(C#N)c2CC1(C)O (stereo not drawn) [Compound 7c, 2-[(7-Acetyl-4-cyano-1,6-dimethyl-6-hydroxy-8-(4-N,N-dimethylamino-phenyl)-,5,6,7,8-tetrahydroisoquinolin-3-yl)thio]-N-(4-chlorophenyl)acetamide]
DPPH scavenging, inhibition (%) ([1]; 0.01 µg/mL): 77.90 ± 6.22%
DPPH scavenging, inhibition (%) ([1]; 0.05 µg/mL): 81.39 ± 4.99%
antioxidant activity compared with Vitamin C ([1]; DPPH): higher result than Vitamin C; also recorded: higher antioxidant activity than Vitamin C
Toxicity % (A549 cell line; A549, Conc. 0.04875 µMol): 3.457%
Viability % (A549 cell line; A549, Conc. 0.04875 µMol): 96.54%
Toxicity % (A549 cell line; A549, Conc. 0.0975 µMol): 4.658%
Viability % (A549 cell line; A549, Conc. 0.0975 µMol): 95.3422%
Toxicity % (A549 cell line; A549, Conc. 0.195 µMol): 6.193%
Viability % (A549 cell line; A549, Conc. 0.195 µMol): 93.81%
Toxicity % (A549 cell line; A549, Conc. 0.391 µMol): 33.41%
Viability % (A549 cell line; A549, Conc. 0.391 µMol): 66.59%
Toxicity % (A549 cell line; A549, Conc. 0.781 µMol): 51.48%
Viability % (A549 cell line; A549, Conc. 0.781 µMol): 48.52%
Toxicity % (A549 cell line; A549, Conc. 1.562 µMol): 68.05%
Viability % (A549 cell line; A549, Conc. 1.562 µMol): 31.95%
Toxicity % (A549 cell line; A549, Conc. 3.125 µMol): 77.2%
Viability % (A549 cell line; A549, Conc. 3.125 µMol): 22.8%
Toxicity % (A549 cell line; A549, Conc. 6.25 µMol): 90.57%
Viability % (A549 cell line; A549, Conc. 6.25 µMol): 9.428%
Toxicity % (A549 cell line; A549, Conc. 12.5 µMol): 95.94%
Viability % (A549 cell line; A549, Conc. 12.5 µMol): 4.063%
Toxicity % (A549 cell line; A549, Conc. 25 µMol): 97.44%
Viability % (A549 cell line; A549, Conc. 25 µMol): 2.564%
IC50 (A549 cell line): 496 ± 3 nM
IC50 (MCF7 cell line): 1491 ± 4 nM
Toxicity % (MCF7 cell line; MCF7, 0.0487 µMol): -0.6776%
Viability % (MCF7 cell line; MCF7, 0.0487 µMol): 100.4%
Toxicity % (MCF7 cell line; MCF7, 0.0975 µMol): -0.5335%
Viability % (MCF7 cell line; MCF7, 0.0975 µMol): 100.6%
Viability % (MCF7 cell line; MCF7, 0.195 µMol): 99.47%
Viability % (MCF7 cell line; MCF7, 0.391 µMol): 100.1634%
Toxicity % (MCF7 cell line; MCF7, 0.781 µMol): 8.333%
Viability % (MCF7 cell line; MCF7, 0.781 µMol): 91.67%
Toxicity % (MCF7 cell line; MCF7, 1.562 µMol): 36.68%
Viability % (MCF7 cell line; MCF7, 1.562 µMol): 63.32%
Toxicity % (MCF7 cell line; MCF7, 3.125 µMol): 65.48%
Viability % (MCF7 cell line; MCF7, 3.125 µMol): 34.52%
Toxicity % (MCF7 cell line; MCF7, 6.25 µMol): 86.36%
Viability % (MCF7 cell line; MCF7, 6.25 µMol): 13.64%
Toxicity % (MCF7 cell line; MCF7, 12.5 µMol): 80.15%
Viability % (MCF7 cell line; MCF7, 12.5 µMol): 19.85%
Toxicity % (MCF7 cell line; MCF7, 25 µMol): 96.77%
Viability % (MCF7 cell line; MCF7, 25 µMol): 3.227%
